The results in this text go back to paper PMC7156458, “Synthetic biology based construction of biological activity-related library of fungal decalin-containing diterpenoid pyrones” (Nature Communications, 2020).

Several values for one entry are separate records, joined by “and”; a condition that tells them apart may be missing. Equal entries are not always repeated. Where two headings read alike, the source gives them in different places. A value given as a limit tells only on which side of the number the result lay.

One data set concerns IMD pathway. Briefly: IMD pathway inhibition, Attacin promoter luciferase assay in l(2)mbn cells. The class given is cell-based, Drosophila. The settings on record: for IC50: IMD pathway; for activity at 0.2 µM / activity at 0.4 µM / activity at 0.8 µM / activity at 1 µM / Promoter Activity (%): heat-killed E. coli.
The nature of data set [1]: cytotoxicity in the anti-HIV assay (CC50). The data set is classed as cell-based. The settings on record: human, MAGI cells (HeLa-CD4-LTR/beta-galactosidase).
The next data set deals with Aβ42 (Homo sapiens, UniProt P05067). Kind of data set: LC/Q Tof-MS detection of Aβ42 adducts. The settings on record: 1 h incubation at room temperature. The data set is classed as binding. The method, then: To further analyse the inhibitory mechanism, we subjected a mixture of Aβ42 and 21 after 1 h of incubation at room temperature to liquid chromatography/quadrupole time-of-flight mass spectrometry (LC/Q Tof-MS). […] To identify the specific amino acids involved in the interaction of 21 with the Aβ monomer, we performed LC–MS/MS analysis with collision-induced dissociation (CID) using E22P, M35ox-Aβ9-35 as a toxic conformer surrogate[66],[67]. Based on a large number of fragmented b ions and y ions, Lys16 in Aβ42 ([…]) seemed to be one of the target amino acid residues of 21 (Supplementary Fig. 50).
Aβ42, sequence (P05067 672-713): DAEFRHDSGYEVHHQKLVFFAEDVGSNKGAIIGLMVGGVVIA
Device; UPLC H-class with Xevo G2-S Qtof (Waters) 3.44e7 […]
in 50% CH3CN containing 0.01%NH4OH, incubated for 1 h at 23 °C […]
Capillary voltage; 3.0 kv 16.07
WT-A!42+ compound 21 1: TOF MS ES+
ْMeasurement conditionٓ 2.25e7
Device; UPLC H-class with Xevo G2-S Qtof (Waters)
Capillary voltage; 3.0 kv
WT-A!42 + compound 21 Mass spectrum […]
Supplementary Fig. 48. Comparison of LC-MS data, a, compound 20 was incubated with wt-Aβ42 and analyzed by LC-MS, whereas no peak originated from their adducts was observed. b, compound 21 was incubated with Aβ42 and analyzed by LC-MS, and their Michael adducts were observed around 9 min. c, ESI mass spectra of the Michael adducts between Aβ42 and compound 21. d, Deconvolution Mass spectrum of a Michael adduct observed at 8.944 min. […]

In a further data set the test system is HCT-15. Kind of data set: cells. Also noted: JFCR39 human cancer cell line panel, antiproliferative dose response (optical density), GI50. The settings on record: Homo sapiens, HCT-15. How it is done: (§1) Initially, we evaluated new DDP analogues for their antiproliferative activities across the panel of 39 human cancer cell lines, JFCR39[50],[51]. […] Purified DDPs was dissolved in DMSO (Specially Prepared Reagent, Nuclease and Protease tested, NACALAI, 09659-14) to prepare 5 mM solutions. The Each DDP solution (5 mM) was used for antiproliferative effects on cancer cell lines (Supplementary Notes 23, 24, 25, 26), biological activity against Drosophila (Supplementary Note 27), anti-HIV assay (Supplementary Note 28) and screening of amyloid Ab42 aggregation inhibitors (Supplementary Notes 29).

The next data set has as its system MKN-B. Kind of data set: cells. Also noted: JFCR39 human cancer cell line panel, antiproliferative dose response (optical density), GI50. The method, then:
as §1

The subject of a further data set is NCI-H460. Briefly: cells. Set-up: JFCR39 human cancer cell line panel, antiproliferative dose response (optical density), GI50. The conditions noted are these: Homo sapiens, NCI-H460. How it is done:
as §1

Consider `C=C1CCC2C(C)(CCC=C(C)C)C(O)CCC2(C)C1Cc1c(OC)oc(CO)c(C(=O)OC)c1=O` (stereo not shown) [Compound 13], for which the “inhibitory effect on the IMD pathway” value in the data set on IMD pathway is recorded as “moderate inhibitory effect”.
Take `C=C1CC[C@@H]2[C@](C)(CC[C@H]3O[C@H](C=C(C)C)C[C@@]23C)[C@@H]1Cc1c(OC)oc(CO)c(C)c1=O` [Compound 20]: the CC50 in data set [1] was greater than 10000 nM. For the same compound, the “Aβ42 adduct formation” value at Aβ42 is on record as “no such adduct was found”.
Take `C=C1CC[C@@H]2[C@](C)(CC[C@H]3O[C@H](C=C(C)C)C[C@@]23C)[C@@H]1Cc1c(OC)oc(CO)c(C(=O)OC)c1=O` [Compound 21]: the “Inhibitory effect (%)” value in the data set with IMD pathway (0.4 µM, single wells) is 89.37% and 87.09%; in the data set on IMD pathway (0.8 µM, single wells), 98.99% and 96.72%; in the data set on IMD pathway (1 µM, single wells), 98.29% and 97.94%. In addition, in the data set with IMD pathway (Drosophila melanogaster, 0.4 µM, single wells, read-out: Inhibitory effect (%)), the inhibition at 0.4 µM stood at 85.2%. Further, the inhibition at 0.8 µM in the data set with IMD pathway (Drosophila melanogaster, 0.8 µM, single wells, read-out: Inhibitory effect (%)) was 96.5%. For the same compound, the inhibition at 1 µM in the data set with IMD pathway (Drosophila melanogaster, 1 µM, single wells, read-out: Inhibitory effect (%)) turned out to be 100%. Moreover, the IC50 with IMD pathway (Drosophila melanogaster, read-out: IC50) stood at 270 ± 10 nM; in the data set with IMD pathway (Drosophila melanogaster, read-out: IC50 Average), 273 nM; in the data set with IMD pathway (Drosophila melanogaster, single determinations, read-out: IC50 (IC50 1, 2, 3)), 260 nM; in the data set on IMD pathway (single determinations, read-out: IC50 (IC50 1, 2, 3)), 290 nM. For the same compound, the activity at 0.2 µM in the data set on IMD pathway (Drosophila melanogaster, 0.2 µM, read-out: Promoter Activity (%) Average) was 81.5%; with IMD pathway (Drosophila melanogaster, 0.2 µM, read-out: Promoter Activity (%) Final), 81.5%; in the data set on IMD pathway (Drosophila melanogaster, 0.2 µM, single wells, read-out: Promoter Activity (%)) it was 73.6%. In addition, the activity at 0.4 µM is 12.8% in the data set on IMD pathway (Drosophila melanogaster, 0.4 µM, read-out: Promoter Activity (%) Average); 12.8% with IMD pathway (Drosophila melanogaster, 0.4 µM, read-out: Promoter Activity (%) Final); 14.8% in the data set on IMD pathway (Drosophila melanogaster, 0.4 µM, single wells, read-out: Promoter Activity (%)). Further, the activity at 0.8 µM in the data set with IMD pathway (Drosophila melanogaster, 0.8 µM, read-out: Promoter Activity (%) Average) was found to be 2.58%; in the data set with IMD pathway (Drosophila melanogaster, 0.8 µM, read-out: Promoter Activity (%) Final), 2.58%. Besides, the activity at 1 µM in the data set on IMD pathway (Drosophila melanogaster, 1 µM, read-out: Promoter Activity (%) Average) was determined as 1.26%; with IMD pathway (Drosophila melanogaster, 1 µM, read-out: Promoter Activity (%) Final), 1.26%. In addition, the “Promoter Activity (%)” value was 82.38% and 88.33% in the data set with IMD pathway (0.2 µM, single wells); 10.63% and 12.91% with IMD pathway (0.4 µM, single wells); 3.46% and 1.01% and 3.28% in the data set with IMD pathway (0.8 µM, single wells); 0.00% and 1.71% and 2.06% in the data set on IMD pathway (1 µM, single wells). Also, the “Aβ42 adduct formation” value at Aβ42 is reported as “adducts were detected”.
`C=C1CCC2C3(C)CC(C=C(C)C)OC3CCC2(C)C1Cc1c(OC)oc(C)c(C)c1=O` (stereo not shown) [Compound 23] displayed a GI50 in the data set on HCT-15 of 983 nM.
In the case of `C=C1CC[C@H]2[C@]3(C)C[C@H](C=C(C)C)O[C@H]3CC[C@]2(C)[C@@H]1Cc1c(OC)oc(C)c(C)c1=O` [Compound 24], the 50% growth inhibitory concentration (GI50) turned out to be 1280 nM in the data set with MKN-B and 90.1 nM in the data set with NCI-H460.

As a reminder, the CC50 is the concentration giving 50% cytotoxicity. One may read the IC50 as the midpoint of a concentration-inhibition curve. A word on the GI50: it is the concentration giving 50% growth inhibition. Low values mean more potent growth inhibition, high ones less potent growth inhibition.
